Measurements: patent EP0074307A1, “Mixed bromo-iodo benzene compounds and contrast products containing them” (Société dite: GUERBET S.A., priority 1981, dated 1983)

Key:
complément = assay: Complement activation (hemolytic concentration 50, CH 50); type: biochemical; set-up: unit not given here; conditions: higher CH 50 = less complement activation, better tolerance
Text: Les travaux d'Elliott C. Lasser (Investig. Radiol., 1974, 9, 4 6A) ont montré que les produits de contraste activent le complément, qui est un ensemble de protéines sériques dont l'activation peut conduire à des réactions anaphylactiques graves.
La mesure de cette activation est effectuée par la détermination de la concentration hémolytique 50 désignée CH 50. On estime que les produits moins activateurs du complément, c'est-à-dire ayant une CH 50 plus élevée , provoquent moins d'effets secondaires de type anaphylactiques et présentent donc une meilleure tolérance.

[1] = X-ray opacity measured via film densitometry, relative to Hexabrix; type: physicochemical; conditions: aqueous solutions of methylglucamine salts, same number of moles as Hexabrix (32 % iodine), X-ray source 70 kV
Text: L'opacité a été mesurée indirectement à l'aide de l'impression produite sur un film photographique par un faisceau de rayons X traversant une cuve contenant une solution aqueuse des composés. La transparence du film après développement a été mesurée à l'aide d'un densi- tomètre optique. Dans chaque cas, la mesure a été effectuée sur le même film et avec la même source de rayons X (70 kV) par comparaison avec un produit opacifiant servant de référence.
Comme produit de référence, on a utilisé l'Hexa- brix qui est une solution de sels de sodium et de méthyl- glucamine de l'acide ioxaglique à 32 % en iode.
Les composés selon l'invention ont été testés sous forme de solutions aqueuses de leurs sels de méthyl- glucamine contenant le même nombre de moles de composés que l'Hexabrix.

SMILES	CH 50 (complément)	Opacité relative/Hexabrix [1]
CNC(=O)c1c(I)c(NC(=O)CNC(=O)c2c(I)cc(I)c(N(C)C(C)=O)c2I)c(I)c(C(=O)O)c1I [Analogue complètement iodé du composé 5, reference compound]	3,8	–
CNC(=O)c1c(Br)c(C(=O)NCC(=O)Nc2c(I)cc(I)c(C(=O)O)c2I)c(Br)c(N(C)C(C)=O)c1Br [compound 8]	11,5	–
CNC(=O)c1c(I)c(NC(=O)CNC(=O)c2c(Br)cc(Br)c(N(C)C(C)=O)c2Br)c(I)c(C(=O)O)c1I [compound 5]	7,4	0,92
CNC(=O)c1c(I)c(C(=O)NCC(=O)Nc2c(Br)cc(Br)c(C(=O)O)c2Br)c(I)c(N(C)C(C)=O)c1I [compound 7]	10,0	–
CNC(=O)c1c(Br)c(C(=O)NCCCC(=O)Nc2c(I)c(C(=O)O)c(I)c(C(=O)NCCO)c2I)c(Br)c(N(C)C(C)=O)c1Br [compound 13]	15,3	–
CNC(=O)c1c(Br)c(C(=O)NCC(=O)Nc2c(I)c(C(=O)O)c(I)c(C(=O)NCCO)c2I)c(Br)c(N(C)C(C)=O)c1Br [Composé 2, acide triiodo-2,4,6 N-hydroxyéthylcarbamoyl-3 (tribromo-2,4,6 N-méthylcarbamoyl-3 N-méthyl N-acétylamino-5 benzoyl) glycylamino-5 benzoïque]	20,8	0,92
CNC(=O)c1c(Br)c(C(=O)NCCC(=O)Nc2c(I)cc(I)c(C(=O)O)c2I)c(Br)c(N(C)C(C)=O)c1Br [compound 12]	11,0	–
CNC(=O)c1c(I)c(C(=O)NCC(=O)Nc2c(Br)c(C(=O)O)c(Br)c(C(=O)NCCO)c2Br)c(I)c(N(C)C(C)=O)c1I [compound 1, acide tribromo-2,4,6 N-hydroxyéthylcarbamoyl-3 (triiodo-2,4,6 N-méthylcarbamoyl-3 N-méthyl N-acétylamino-5 benzoyl) glycylamino-5 benzoique]	20,2	0,91
